In patent publication US7022711B2, “2-(4-Pyridyl)amino-6-dialkoxyphenyl-pyrido[2,3-d]pyrimidin-7-ones” (Warner-Lambert Company, priority 2000, dated 2006):

Columns and labels:
[1] = system: C6 rat glioma cells; experiment: C6 tumor cell proliferation (Sulphorhodamine B); format: cell-based; settings: 4 days with compound
Description: Human umbilical vein endothelial cells (HUVECs) (Clonetics, Palo Alto, Calif.) were seeded at 2000 cells per well in growth medium containing 2% serum (EGM, Clonetics) and allowed to attach overnight (37° C., 5% CO2, 100% humidity). C6 rat glioma cells (ATCC) were seeded at 600 cells per well and incubated in F10 medium (GIBCO, Gaithersburg, Md.) supplemented with 15% horse serum, 2.5% fetal bovine serum, and 1 mM glutamine. A90 human ovarian cells (Dr. Kent Crickard, SUNY/AB Medical School) were seeded at 600 cells per well in RPMI1640 (GIBCO) plus 10% fetal bovine serum. Plates were incubated overnight (37° C., 5% CO2, 100% humidity) to allow the cells to attach. Test compound dilutions were added to the appropriate wells, and the incubation was continued for 4 additional days. Monolayers were fixed in 10% trichloroacetic acid (30 minutes at 4° C.), washed with distilled water, and stained with Sulphorhodamine B (0.075% in 1% acetic acid) (Sigma). Plates were washed in 1% acetic acid, and the bound dye was solubilized in 100 μL unbuffered Tris base. Absorbance was measured at 540 nm using a reference filter wavelength of 630 nm. Inhibitor potency (IC50) versus cellular proliferation was determined, and endothelial cell selectivity was assessed by comparing the inhibition of HUVEC proliferation to A90 and C6 tumor cell proliferation (Table 3).

[2] = target: T1, Lck (Homo sapiens, UniProt P06239); experiment: Kinase inhibition assay (DELFIA), Lck; format: biochemical; settings: 40 μM ATP, kinase domain 20 nM
T1 construct: The kinase domains from FGFR-1, VEGFR-2, Lck, and PDGF were purified from baculoviral vectors expression systems; made in house
T1 sequence (P06239 245-498 limits assumed, species assumed): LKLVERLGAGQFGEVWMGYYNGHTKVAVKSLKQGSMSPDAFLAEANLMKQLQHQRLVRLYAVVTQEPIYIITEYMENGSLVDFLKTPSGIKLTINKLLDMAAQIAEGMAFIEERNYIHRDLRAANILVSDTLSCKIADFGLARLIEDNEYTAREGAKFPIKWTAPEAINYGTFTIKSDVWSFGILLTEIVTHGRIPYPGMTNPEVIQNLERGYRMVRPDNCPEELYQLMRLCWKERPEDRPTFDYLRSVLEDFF
Description: The inhibition activity of the compounds in Examples 8, 9, 10, 11, and 12 and Reference Compounds A and B were evaluated using the Dissociated Enhanced Lanthanide Fluoroimmuno Assay (DELFIA) (Frank Loganzo and Carolyn Hardy. A sensitive, time-resolved fluorometric assay for the detection of inhibitors of phosphotyrosine kinases. American Biotechnology Laboratory, December 1998). DELFIA plates (EG&G Wallac, Gaithersburg, Md.) were coated overnight with Poly Glu Tyr (4:1) (Sigma, St. Louis, Mo.) at room temperature, washed (DELFIA wash reagent, EG&G Wallac), and spotted with 1 μL inhibitor dilution or DMSO carrier control per well. In some cases, kinase was autophosphorylated prior to analysis by incubating 45 minutes at 4° C. in the presence of 4 mM ATP and 25 mM MgCl2. A typical 100 μL kinase assay reaction contained 20 mM Tris (pH 7.5), 20 mM MgCl2, 50 mM NaCl, 5 mM DTT, and protease inhibitors (Mini EDTA-free protease inhibitor cocktail tablets, Boehringer Mannheim, Indianapolis, Ind.), 40 μM ATP, and an appropriate concentration of inhibitor. The reaction was allowed to continue for 30 minutes at room temperature. Plates were washed, blocked 30 minutes at room temperature (0.5% bovine serum albumin in DELFIA Assay Buffer, EG&G Wallac), and washed. One hundred microliter europium-conjugated antiphosphotyrosine antibody in DELFIA assay buffer was added to each well. Plates were incubated for 1 hour and decanted. One hundred microliter DELFIA enhancement solution (EG&G Wallac) was added and time-resolved fluorescence of the reactions determined using a VICTOR2 1420 multilable counter (EG&G Wallac). Compounds were tested from 10 through 0.0001 μM. c-Src was (Upstate Biotechnology, Lake Placid, N.Y.) was used at 3 units per reaction. The kinase domains from FGFR-1, VEGFR-2, Lck, and PDGF were purified from baculoviral vectors expression systems and were used in the assays at 20 nM.

[3] = system: VEGFR-2 and FGFR-1 compared to PDGFR, Lck, and c-Src; experiment: Kinase selectivity comparison across the kinase inhibition assays; format: biochemical; settings: compared with reference Compounds A and B
Text: The invention compounds have been evaluated in the in vitro biological assays described in U.S. Pat. No. 5,733,914. […] Reference Compound A has a 2,6-dichloro phenyl group at the 6-position. Reference Compound B has a 3,5-dimethoxyphenyl group at the 6-position and a substituted phenylamino at the 2-position. The invention compound of Example 8 has the required 3,5-dimethoxyphenyl at the 6-position and the required (4-pyridyl)amino at the 2-position. The structures are shown in Table 1, along with their respective inhibitory activities against various tyrosine kinases, when evaluated in the models described in U.S. Pat. No. 5,733,914.
The preferred kinase selectivity profile of the compound in Example 8 is shared by the other representative compounds of the invention shown in Table 2. The inhibition activity of the compounds in Examples 8, 9, 10, 11, and 12 and Reference Compounds A and B were evaluated using the Dissociated Enhanced Lanthanide Fluoroimmuno Assay (DELFIA) (Frank Loganzo and Carolyn Hardy. A sensitive, time-resolved fluorometric assay for the detection of inhibitors of phosphotyrosine kinases. American Biotechnology Laboratory, December 1998). […] One hundred microliter DELFIA enhancement solution (EG&G Wallac) was added and time-resolved fluorescence of the reactions determined using a VICTOR2 1420 multilable counter (EG&G Wallac). […]

For “6-(3,5-Dimethoxy-phenyl)-8-ethyl-2-(pyridin-4-ylamino)-8H-pyrido[2,3-d]pyrimidin-7-one [Example 8]”, the IC50 [1] was greater than 25 µM, the Ki [2] was 1.79 µM and the “selectivity for VEGFR-2 and FGFR-1 compared to PDGFR, Lck, and c-Src” value [3] was “more selective”.
